Experimental data from US11214803B2, “Modulators of YAP1 expression” (Ionis Pharmaceuticals, Inc., priority 2019, dated 2022).
Marks after values point to notes of the source that are not given here. Strand notation (5' to 3'): a small letter for the sugar, then the base; units joined by * are phosphorothioate-linked, units joined directly phosphodiester-linked; [ ] holds rarer units or linkages, { } end groups; capitals alone tell only the bases. k = constrained ethyl (cEt); [5mC] = 5-methylcytosine; d = 2'-deoxy (DNA)

Columns and labels:
[1] = Tolerability in CD-1 mice, plasma chemistry markers (Example 18); assay type: in vivo; conditions: male CD-1 mice, 50 mg/kg s.c. twice a week (total of 9 treatments), day 34
Method: CD-1 mice were treated with modified oligonucleotides selected from studies described above and evaluated for changes in the levels of various plasma chemistry markers.
(§1) Groups of four male CD-1 mice at 5-6 weeks of age (obtained from Charles River) were injected subcutaneously twice a week for four weeks (for a total of 9 treatments) with 50 mg/kg of modified oligonucleotides. One group of male CD-1 mice was injected with PBS. Mice were euthanized on day 34 post start of treatment (24 hours following the final administration).

[2] = Tolerability in CD-1 mice, body and organ weights (Example 18); assay type: in vivo; conditions: male CD-1 mice, 50 mg/kg s.c. twice a week (total of 9 treatments), end of study (day 34)
Method: as §1
Body weights of CD-1 mice were measured at the end of the study, and the average body weight for each group is presented in the table below. Modified oligonucleotides that caused any changes in organ weights outside the expected range for modified oligonucleotides were excluded from further studies.

Yap1 mRNA [3] = assay: Antisense inhibition of human Yap1 in A-431 cells by cEt gapmers, single dose (Example 3, RTS36584); assay type: cell-based
Method in brief: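 A-431 cells (5,000/well) took up the 3-10-3 cEt gapmers by free uptake at 2,000 nM for about 48 h. Yap1 mRNA was measured by RT-qPCR with primer probe set RTS36584, normalized to RiboGreen total RNA, and given as % of untreated control.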

Yap1 mRNA [4] = assay: Yap1 mRNA levels in SNU449 xenograft tumors (first Example 30); assay type: in vivo, human; conditions: SNU449 xenograft mice, 50 mg/kg, tumors collected day 119 post implantation, relative to PBS
Method: Modified oligonucleotides described in the studies above were tested in a hepatocellular carcinoma SNU449 xenograft tumor model. A control oligonucleotide 792169 was also tested.
Five million SNU449 cells in 30% matrigel were implanted subcutaneously into the fatpads of female NOD.Cg-Prkdcscid II2rgtmlWjl/SzJ mice (from Jackson Laboratory) at 4-6 weeks of age. 43 days post implantation (when tumors had reached approximately 100 mm^3 in size), groups of eight mice each were administered with 50 mg/kg modified oligonucleotide daily for 10 days (loading dose), following which they were administered with 50 mg/kg modified oligonucleotide four times a week for one week, following which they were dosed with 50 mg/kg modified oligonucleotide thrice weekly until the end of the study. Animals were sacrificed and tumors were collected on day 119 post implantation. Yap1 mRNA knockdown in tumors was measured by RT-qPCR as previously described using the Human Yap1 primer-probe set RTS4814. Yap1 mRNA levels were normalized to actin-beta content, as measured by primer probe set RTS5002. Results are presented in the tables below as percent control of the amount of Yap1 mRNA relative to PBS treated animals (% control).

SNU449 xenograft tumor = assay: Tumor volume in SNU449 xenograft tumor model, alone and in combination with sorafenib (second Example 30); assay type: in vivo, human; conditions: SNU449 xenograft, oligonucleotide 50 mg/kg, sorafenib 30 mg/kg orally
Method: Modified oligonucleotides described in the studies above were tested in a hepatocellular carcinoma SNU449 xenograft tumor model. […] A control oligonucleotide 792169, described herein above, was also tested.
Five million SNU449 cells in 30% matrigel were implanted subcutaneously into the fatpads of female NOD.Cg-Prkdcscid II2rgtmlWjl/SzJ mice (from Jackson Laboratory) at 4-6 weeks of age. 43 days post implantation (when tumors had reached approximately 100 mm^3 in size), groups of eight mice each were administered with 50 mg/kg modified oligonucleotide daily for 10 days (loading dose), following which they were administered with 50 mg/kg modified oligonucleotide four times a week for one week, following which they were dosed with 50 mg/kg modified oligonucleotide thrice weekly until the end of the study. […] Animals were sacrificed, and tumors were collected on day 119 post implantation.
Tumor volumes were also measured at the indicated days in the table below.

[5] = day 101 post tumor implantation
[6] = day 105 post tumor implantation
[7] = day 108 post tumor implantation
[8] = day 119 post tumor implantation

| Substance | ALT [1] [U/L] | AST [1] [U/L] | BUN [1] [mg/dL] | TBIL [1] [mg/dL] | Kidney weight [2] [g] | Liver weight [2] [g] | Spleen weight [2] [g] | body weight [2] [g] | Yap1 mRNA levels in tumors (Yap1 mRNA [4]) [% control] | Average Tumor Volume (SNU449 xenograft tumor; day 43 post tumor implantation) [mm^3] | Average Tumor Volume (SNU449 xenograft tumor; day 46 post tumor implantation) [mm^3] | Average Tumor Volume (SNU449 xenograft tumor; day 50 post tumor implantation) [mm^3] | Average Tumor Volume (SNU449 xenograft tumor; day 53 post tumor implantation) [mm^3] | Average Tumor Volume (SNU449 xenograft tumor; day 57 post tumor implantation) [mm^3] | Average Tumor Volume (SNU449 xenograft tumor; day 60 post tumor implantation) [mm^3] | Average Tumor Volume (SNU449 xenograft tumor; day 64 post tumor implantation) [mm^3] | Average Tumor Volume (SNU449 xenograft tumor; day 67 post tumor implantation) [mm^3] | Average Tumor Volume (SNU449 xenograft tumor; day 71 post tumor implantation) [mm^3] | Average Tumor Volume (SNU449 xenograft tumor; day 75 post tumor implantation) [mm^3] | Average Tumor Volume (SNU449 xenograft tumor; day 78 post tumor implantation) [mm^3] | other results |
| --- | --- | --- | --- | --- | --- | --- | --- | --- | --- | --- | --- | --- | --- | --- | --- | --- | --- | --- | --- | --- | --- |
| 1076453 (GTAATATTGCAATCTG; 3-10-3 cEt gapmer, further chemistry not given here) [compound 1076453] | 56 | 113 | 20 | 0.24 | 0.56 | 1.91 | 0.20 | 38 | – | – | – | – | – | – | – | – | – | – | – | – | – |
| 958499 (ATTAGAGTATGTGGCA; 3-10-3 cEt gapmer, further chemistry not given here) [compound 958499] | 79 | 88 | 24 | 0.18 | 0.57 | 2.20 | 0.22 | 39 | – | – | – | – | – | – | – | – | – | – | – | – | YAP1 (% UTC) (Yap1 mRNA [3]; Table 26, Yap1 mRNA by 3-10-3 cEt gapmers targeting SEQ ID NO.: 1, and 2, percent of untreated control): 1 % UTC; YAP1 (% UTC) (Yap1 mRNA [3]; Table 27, Yap1 mRNA by 3-10-3 cEt gapmers targeting SEQ ID NO.: 1, and 2, percent of untreated control): 2 % UTC; YAP1 (% UTC) (Yap1 mRNA [3]; Table 28, Yap1 mRNA as percent of untreated control, 3-10-3 cEt gapmers targeting SEQ ID NO.: 1, and 2): 2 % UTC; YAP1 (% UTC) (Yap1 mRNA [3]; Table 29, Yap1 mRNA as percent of untreated control, 3-10-3 cEt gapmers targeting SEQ ID NO.: 1, and 2): 2 % UTC; YAP1 (% UTC) (Yap1 mRNA [3]; Table 34, Yap1 mRNA as percent of untreated control, 3-10-3 cEt gapmers targeting SEQ ID NO: 1 and 2, single dose): 1 % UTC; YAP1 (% UTC) (Yap1 mRNA [3]; Table 35, Yap1 mRNA as percent of untreated control, 3-10-3 cEt gapmers targeting SEQ ID NO: 1 and 2, single dose): 2 % UTC |
| 958499 (kA*kT*kT*dA*dG*dA*dG*dT*dA*dT*dG*dT*dG*kG*k[5mC]*kA) [Compound 958499] | – | – | – | – | – | – | – | – | – | – | – | – | – | – | – | – | – | – | – | – | YAP1 (% UTC) (Yap1 mRNA [3]; Table 12, A-431 cells, 5,000 cells per well, free uptake, 2,000 nM modified oligonucleotide, approx. 48 hours, RTS36584, normalized to RIBOGREEN, Yap1 mRNA relative to untreated control cells): 1 % UTC |
| 1198440 (AAGTGTATGTCAGAAG; cEt, 2'-MOE, 5-methylcytosine, phosphorothioate modifications, further chemistry not given here) [compound 1198440] | – | – | – | – | – | – | – | – | 34 | 111 | 152 | 168 | 201 | 242 | 263 | 338 | 376 | 373 | 401 | 429 | Average Tumor Volume (SNU449 xenograft tumor; day 81 post tumor implantation): 514 mm^3; Average Tumor Volume (SNU449 xenograft tumor; day 85 post tumor implantation): 606 mm^3; Average Tumor Volume (SNU449 xenograft tumor; day 88 post tumor implantation): 613 mm^3; Average Tumor Volume (SNU449 xenograft tumor; day 92 post tumor implantation): 690 mm^3; Average Tumor Volume (SNU449 xenograft tumor; day 94 post tumor implantation): 773 mm^3; Average Tumor Volume (SNU449 xenograft tumor; day 98 post tumor implantation): 804 mm^3; Average Tumor Volume (SNU449 xenograft tumor; [5]): 818 mm^3; Average Tumor Volume (SNU449 xenograft tumor; [6]): 894 mm^3; Average Tumor Volume (SNU449 xenograft tumor; [7]): 921 mm^3; Average Tumor Volume (SNU449 xenograft tumor; [8]): 978 mm^3 |
| CGCCGATAAGGTACAC (cEt gapmer, phosphorothioate backbone, further chemistry not given here) [ION 792169, reference compound] | – | – | – | – | – | – | – | – | 90 | 111 | 162 | 180 | 247 | 280 | 317 | 397 | 466 | 519 | 559 | 634 | Average Tumor Volume (SNU449 xenograft tumor; day 81 post tumor implantation): 681 mm^3; Average Tumor Volume (SNU449 xenograft tumor; day 85 post tumor implantation): 785 mm^3; Average Tumor Volume (SNU449 xenograft tumor; day 88 post tumor implantation): 889 mm^3; Average Tumor Volume (SNU449 xenograft tumor; day 92 post tumor implantation): 1170 mm^3; Average Tumor Volume (SNU449 xenograft tumor; day 94 post tumor implantation): 1215 mm^3; Average Tumor Volume (SNU449 xenograft tumor; day 98 post tumor implantation): 1355 mm^3; Average Tumor Volume (SNU449 xenograft tumor; [5]): 1417 mm^3; Average Tumor Volume (SNU449 xenograft tumor; [6]): 1509 mm^3; Average Tumor Volume (SNU449 xenograft tumor; [7]): 1571 mm^3; Average Tumor Volume (SNU449 xenograft tumor; [8]): 1697* mm^3 |
